In patent US20230243016A1, “APPLICATIONS OF CARBOXYLIC COMPOUND SERVING AS EXTRACTING AGENT AND METAL ION EXTRACTION METHOD” (BOTREE CYCLING SCI & TECH CO., LTD., priority 2020, published 2023):
Each block holds one compound with its values, some of them ahead of it.

Columns and labels:
[1] = Separation coefficients between non-ferrous metal ions (Example 1, Comparative Example 3); assay type: physicochemical
Description: (§1) In the embodiments of the present application, after extraction, a metal ion concentration of the aqueous phase is analyzed using the inductively coupled plasma optical emission spectroscopy (ICP-OES), and a metal ion concentration of the organic phase is calculated by the difference subtraction method.
(§2) Extractant 191 was dissolved in dodecane to prepare a 0.2 mol/L organic phase, and 0.01 mol/L sulfate solutions of Cu^2+, Zn^2+, Cd^2+, Ni^2+, Co^2+, Mn^2+, Ca^2+, Mg^2+, and Li^+ were prepared as aqueous phases, respectively.
This comparative example differs from Example 1 in that Extractant 191 was replaced with extractant Versatic 10 (commercially available, with an acid content of 98%).

[2] = Extraction performance for non-ferrous metal ions (Example 1); assay type: physicochemical; conditions: 0.2 mol/L in dodecane, 0.01 mol/L sulfate solution, O/A 1:1
Description: as §1, §2

[3] = Extraction for a magnesium-enriched nickel chloride solution (Example 5); assay type: physicochemical; conditions: 0.31 mol/L in dodecane; chloride solution 1.33 g/L Ni, 4 g/L Mg; O/A 1:1
Description: as §1
Extractant 191 was dissolved in dodecane to prepare a 0.31 mol/L organic phase, and an aqueous phase was the magnesium-enriched nickel chloride solution containing 1.33 g/L Ni and 4 g/L Mg.

[4] = Back extraction of organic phase loaded with rare earth ions (Example 8); assay type: physicochemical; conditions: organic phase loaded with 0.10 mol/L Lu; 1.0 mol/L hydrochloric acid; O/A 1:1
[5] = Extraction performance for rare earth ions, mixed chloride solution (Example 4); assay type: physicochemical; conditions: 2 mol/L in dodecane, O/A 1:1, ammonia saponification
Description: as §1

[6] = Saturation capacity test for Ni^2+ (Example 7); assay type: physicochemical; conditions: 0.6 mol/L in dodecane, saponified to 60%; repeated contact with 50 g/L NiSO4
Text: The organic phase was back-extracted and the saturation capacity of Extractant 196 for Ni^2+ was obtained to be about 16.9 g/L.

[7] = Extraction from a battery material solution (Example 3, Comparative Example 4); assay type: physicochemical; conditions: 0.6 mol/L in Escaid 110
Description: as §1
Extractant 196 was dissolved in Escaid 110 to prepared a 0.6 mol/L organic phase, and the battery material solution contained Ni (46.20 g/L), Co (20.56 g/L), Mn (23.93 g/L), Ca (0.43 g/L), and Mg (0.21 g/L).
The extractant was dissolved in Escaid 110 and prepared to a 0.6 mol/L organic phase, and a battery material solution contained Ni (46.20 g/L), Co (20.56 g/L), Mn (23.93 g/L), Ca (0.43 g/L), and Mg (0.21 g/L). […] By observing the experimental phenomenon where the extractant exists in the battery material solution system, it can be seen that when the aqueous phase equilibrium pH is greater than 5.33, the phase separation phenomenon becomes worse, the aqueous phase is turbid and viscous, and the organic phase gradually becomes colorless; it can be seen from FIG. 7 that when the aqueous phase equilibrium pH is greater than 5.33, the extraction capability of the extractant for metal ions decreases.

[8] = Extraction performance for trivalent ions (Example 2); assay type: physicochemical; conditions: 0.1 mol/L in toluene, 0.005 mol/L chloride solution, O/A 1:1
Description: as §1
(§3) The Extractant 195 was dissolved in toluene to prepare a 0.1 mol/L organic phase, and 0.005 mol/L chloride solutions of Fe^3+, Ga^3+, In^3+, Sc^3+, Cr^3+, Al^3+, Lu^3+, Ho^3+, and Gd^3+ were prepared as aqueous phases, respectively.

[9] = Separation coefficients between trivalent ions (Example 2); assay type: physicochemical
Description: as §1, §3

[10] = organic phase loaded with Lu; 4 mol/L hydrochloric acid (general practice); cited from earlier work
[11] = pH½, Example 1 / Comparative Example 3 system
[12] = aqueous phase equilibrium pH greater than 5.33, O/A 8:1

Separation coefficient Cd^2+ / Ca^2+ ([1]; Cd^2+, row Ca^2+, Example 1 system): 75.86
Separation coefficient Cd^2+ / Co^2+ ([1]; Cd^2+, row Co^2+, Example 1 system): 17.38
Separation coefficient Cd^2+ / Mg^2+ ([1]; Cd^2+, row Mg^2+, Example 1 system): 263.03
Separation coefficient Cd^2+ / Mn^2+ ([1]; Cd^2+, row Mn^2+, Example 1 system): 18.20
Separation coefficient Cd^2+ / Ni^2+ ([1]; Cd^2+, row Ni^2+, Example 1 system): 8.71
Separation coefficient Co^2+ / Ca^2+ ([1]; Co^2+, row Ca^2+, Example 1 system): 4.37
Separation coefficient Co^2+ / Mg^2+ ([1]; Co^2+, row Mg^2+, Example 1 system): 15.14
Separation coefficient Co^2+ / Mn^2+ ([1]; Co^2+, row Mn^2+, Example 1 system): 1.05
Separation coefficients between various ions (all pairs) ([1]; Cu^2+, Zn^2+, Cd^2+, Ni^2+, Co^2+, Mn^2+, Ca^2+, Mg^2+, Li^+): greater than 1
Separation coefficient Cu^2+ / Ca^2+ ([1]; Cu^2+, row Ca^2+, Example 1 system): 457088.19
Separation coefficient Cu^2+ / Cd^2+ ([1]; Cu^2+, row Cd^2+, Example 1 system): 6025.60
Separation coefficient Cu^2+ / Co^2+ ([1]; Cu^2+, row Co^2+, Example 1 system): 104712.85
Separation coefficient Cu^2+ / Mg^2+ ([1]; Cu^2+, row Mg^2+, Example 1 system): 1584893.19
Separation coefficient Cu^2+ / Mn^2+ ([1]; Cu^2+, row Mn^2+, Example 1 system): 109647.82
Separation coefficient Cu^2+ / Ni^2+ ([1]; Cu^2+, row Ni^2+, Example 1 system): 52480.75
Separation coefficient Cu^2+ / Zn^2+ ([1]; Cu^2+, row Zn^2+, Example 1 system): 691.83
Separation coefficient Ni^2+ / Ca^2+ ([1]; Ni^2+, row Ca^2+, Example 1 system): 8.71
Separation coefficient Ni^2+ / Co^2+ ([1]; Ni^2+, row Co^2+, Example 1 system): 2.00
Separation coefficient Ni^2+ / Mg^2+ ([1]; Ni^2+, row Mg^2+, Example 1 system): 30.20
Separation coefficient Ni^2+ / Mn^2+ ([1]; Ni^2+, row Mn^2+, Example 1 system): 2.09
Separation coefficient Zn^2+ / Ca^2+ ([1]; Zn^2+, row Ca^2+, Example 1 system): 660.69
Separation coefficient Zn^2+ / Cd^2+ ([1]; Zn^2+, row Cd^2+, Example 1 system): 8.71
Separation coefficient Zn^2+ / Co^2+ ([1]; Zn^2+, row Co^2+, Example 1 system): 151.36
Separation coefficient Zn^2+ / Mg^2+ ([1]; Zn^2+, row Mg^2+, Example 1 system): 2290.87
Separation coefficient Zn^2+ / Mn^2+ ([1]; Zn^2+, row Mn^2+, Example 1 system): 158.49
Separation coefficient Zn^2+ / Ni^2+ ([1]; Zn^2+, row Ni^2+, Example 1 system): 75.86
Separation coefficient Ca^2+ / Mg^2+ ([1]; column Ca^2+, row Mg^2+, Example 1 system): 3.47
Separation coefficient Mn^2+ / Ca^2+ ([1]; column Mn^2+, row Ca^2+, Example 1 system): 4.17
Separation coefficient Mn^2+ / Mg^2+ ([1]; column Mn^2+, row Mg^2+, Example 1 system): 14.45
βNi/Ca (separation coefficient) [1, 11]: 8.71
βNi/Co (separation coefficient) [1, 11]: 2.00
βNi/Mg (separation coefficient) [1, 11]: 30.2
βNi/Mn (separation coefficient) [1, 11]: 2.09
βNi/Zn (separation coefficient) [1, 11]: 75.86
Separation coefficients higher compared with Versatic 10 ([1]; same test condition): 20-30%
Extraction pH½ for Ca^2+ [2]: 7.32
Extraction pH½ for Cd^2+ [2]: 6.38
Extraction pH½ for Co^2+ [2]: 7.00
Extraction pH½ for Li^+ [2]: 9.75
Extraction pH½ for Mg^2+ [2]: 7.59
Extraction pH½ for Mn^2+ [2]: 7.01
Extraction pH½ for Ni^2+ [2]: 6.85
Extraction pH½ for Zn^2+ [2]: 5.91
Extraction pH½ for Cu^2+ ([2]; pH by 6 mol/L NaOH saponification): 4.49
Separation coefficient between nickel and magnesium [3]: about 833
Compound: CCCCCCCCCCC(CCCCCC)C(=O)O (stereo not drawn) [Extractant 191]
Extraction order of ions (FIG. 1) ([1]; E%-pH curves, Example 1): extracts nickel and cobalt ions in order before calcium and magnesium
Extraction order of nickel and magnesium (FIG. 6) [3]: extracts nickel in order before magnesium

Saturation capacity for Ni^2+ [6]: about 16.9 g/L
Extraction of Ni, Co and Mn from the battery material solution ([7]; O/A 8:1, pH greater than 6.8): almost completely extracted
Extraction rate of Ca and Mg from the battery material solution ([7]; O/A 8:1, pH greater than 6.8): low extraction rate
Extraction of Ni, Co and Mn from the battery material solution ([7]; pH less than 7.2, O/A 5:1 and 8:1): selectively extracted
Compound: CCCCCCCCC(CCCCCC)C(=O)O (stereo not drawn) [Extractant 196]
Extraction ability for rare earth ions (FIG. 5) [5]: gradually decreases from heavy rare earths to light rare earths

Extraction capability for metal ions (FIG. 7) [7, 12]: decreases
Phase separation phenomenon [7, 12]: becomes worse
Compound: CCCCCCCCCCCCCCCCCC(=O)O [stearic acid, reference compound]

The next lines start with the compound.

Compound: CCCCCCCCC(CC)C(=O)O (stereo not drawn) [Extractant 192]
Back extraction rate [4]: greater than 99%

Compound: CCCCCCCC(CCCCC)C(=O)O (stereo not drawn) [Extractant 195]
Extraction pH½ for Al^3+ [8]: 3.60
Extraction pH½ for Cr^3+ [8]: 3.03
Extraction pH½ for Ga^3+ [8]: 2.60
Extraction pH½ for Gd^3+ [8]: 5.46
Extraction pH½ for Ho^3+ [8]: 5.26
Extraction pH½ for In^3+ [8]: 2.69
Extraction pH½ for Lu^3+ [8]: 5.06
Extraction pH½ for Sc^3+ [8]: 2.97
Extraction pH½ for Fe^3+ ([8]; pH by 8 mol/L NaOH saponification): 1.94
Separation coefficients between various ions (all pairs) ([9]; Fe^3+, Ga^3+, In^3+, Sc^3+, Cr^3+, Al^3+, Lu^3+, Ho^3+, Gd^3+): greater than 1
Separation coefficient Fe^3+ / Al^3+ ([9]; Fe^3+, row Al^3+, Example 2 system): 95499.26
Separation coefficient Fe^3+ / Cr^3+ ([9]; Fe^3+, row Cr^3+, Example 2 system): 1862.09
Separation coefficient Fe^3+ / Ga^3+ ([9]; Fe^3+, row Ga^3+, Example 2 system): 95.50
Separation coefficient Fe^3+ / In^3+ ([9]; Fe^3+, row In^3+, Example 2 system): 177.83
Separation coefficient Fe^3+ / Sc^3+ ([9]; Fe^3+, row Sc^3+, Example 2 system): 1230.27
Separation coefficient Ga^3+ / Al^3+ ([9]; Ga^3+, row Al^3+, Example 2 system): 1000.00
Separation coefficient Ga^3+ / Cr^3+ ([9]; Ga^3+, row Cr^3+, Example 2 system): 19.50
Separation coefficient Ga^3+ / In^3+ ([9]; Ga^3+, row In^3+, Example 2 system): 1.86
Separation coefficient Ga^3+ / Sc^3+ ([9]; Ga^3+, row Sc^3+, Example 2 system): 12.88
Separation coefficient In^3+ / Al^3+ ([9]; In^3+, row Al^3+, Example 2 system): 537.03
Separation coefficient In^3+ / Cr^3+ ([9]; In^3+, row Cr^3+, Example 2 system): 10.47
Separation coefficient In^3+ / Sc^3+ ([9]; In^3+, row Sc^3+, Example 2 system): 6.92
Separation coefficient Cr^3+ / Al^3+ ([9]; column Cr^3+, row Al^3+, Example 2 system): 51.29
Separation coefficient Ho^3+ / Gd^3+ ([9]; column Ho^3+, row Gd^3+, Example 2 system): 3.98
Separation coefficient Lu^3+ / Gd^3+ ([9]; column Lu^3+, row Gd^3+, Example 2 system): 15.85
Separation coefficient Lu^3+ / Ho^3+ ([9]; column Lu^3+, row Ho^3+, Example 2 system): 3.98
Separation coefficient Sc^3+ / Al^3+ ([9]; column Sc^3+, row Al^3+, Example 2 system): 77.62
Separation coefficient Sc^3+ / Cr^3+ ([9]; column Sc^3+, row Cr^3+, Example 2 system): 1.51

Compound: CCCCC(CC)COP(=O)(O)CC(CC)CCCC (stereo not drawn) [Extractant P507]
Primary back extraction rate [10]: about 80%
